Assay results from US20240327389A1, “LACTONE AND LACTAM CONTAINING COMPOUNDS USEFUL AS IMMUNOMODULATORS” (BRISTOL-MYERS SQUIBB COMPANY, priority 2021, published 2024).
pIC50: −log10 of the molar value.

Target: PD-1/PD-L1 interaction (PD-1-Ig / PD-L1-His) (Homo sapiens (Human), UniProt Q9NZQ7)
Assay: PD-1/PD-L1 Homogenous Time-Resolved Fluorescence (HTRF) binding assay
Details: PD-L1-His 10 nM final, PD-1-Ig 20 nM final
Description: The ability of the compounds of the invention to bind to PD-L1 was investigated using a PD-1/PD-L1 Homogenous Time-Resolved Fluorescence (HTRF) binding assay.
The interaction of PD-1 and PD-L1 can be assessed using soluble, purified preparations of the extracellular domains of the two proteins. The PD-1 and PD-L1 protein extracellular domains were expressed as fusion proteins with detection tags, for PD-1, the tag was the Fc portion of Immunoglobulin (PD-1-Ig) and for PD-L1 it was the 6 histidine motif (PD-L1-His). All binding studies were performed in an HTRF assay buffer consisting of dPBS supplemented with 0.1% […] bovine serum albumin and 0.05% (v/v) Tween-20. For the h/PD-L1-His binding assay, inhibitors were pre-incubated with PD-L1-His (10 nM final) for 15 m in 4 μl of assay buffer, followed by addition of PD-1-Ig (20 nM final) in 1 μl of assay buffer and further incubation for 15 m. HTRF detection was achieved using europium crypate-labeled anti-Ig (1 nM final) and allophycocyanin (APC) labeled anti-His (20 nM final). Antibodies were diluted in HTRF detection buffer and 5 μl was dispensed on top of the binding reaction. The reaction mixture was allowed to equilibrate for 30 minutes and the resulting signal (665 nm/620 nm ratio) was obtained using an EnVision fluorometer. Additional binding assays were established between the human proteins PD-1-Ig/PD-L2-His (20 & 5 nM, respectively) and CD80-His/PD-L1-Ig (100 & 10 nM, respectively).
Recombinant Proteins: Human PD-1 (25-167) with a C-terminal human Fc domain of immunoglobulin G (Ig) epitope tag [hPD-1 (25-167)-3S-IG] and human PD-L1 (18-239) with a C-terminal His epitope tag [hPD-L1(18-239)-TVMV-His] were expressed in HEK293T cells and purified sequentially by ProteinA affinity chromatography and size exclusion chromatography. Human PD-L2-His and CD80-His was obtained through commercial sources.
Homogenous Time-Resolved Fluorescence (HTRF) Assays of Binding of Soluble PD-1 to Soluble PD-L1. Soluble PD-1 and soluble PD-L1 refers to proteins with carboxyl-end truncations that remove the transmembrane-spanning regions and are fused to heterologous sequences, specifically the Fc portion of the human immunoglobuling G sequence (Ig) or the hexahistidine epitope tag (His). All binding studies were performed in an HTRF assay buffer consisting of dPBS supplemented with 0.1% (w/v) bovine serum albumin and 0.05% (v/v) Tween-20. For the PD-1-Ig/PD-L1-His binding assay, inhibitors were pre-incubated with PD-L1-His (10 nM final) for 15 m in 4 μl of assay buffer, followed by addition of PD-1-Ig (20 nM final) in 1 μl of assay buffer and further incubation for 15 m. PD-L1 fusion proteins from either human, cynomologous macaques, mouse, or other species were used. HTRF detection was achieved using europium crypate-labeled anti-Ig monoclonal antibody (1 nM final) and allophycocyanin (APC) labeled anti-His monoclonal antibody (20 nM final). Antibodies were diluted in HTRF detection buffer and 5 μl was dispensed on top of binding reaction. The reaction was allowed to equilibrate for 30 minutes and signal (665 nm/620 nm ratio) was obtained using an EnVision fluorometer. Additional binding assays were established between PD-1-Ig/PD-L2-His (20 and 5 nM, respectively), CD80-His/PD-L1-Ig (100 and 10 nM, respectively) and CD80-His/CTLA4-Ig (10 and 5 nM, respectively).
Recombinant Proteins. Carboxyl-truncated human PD-1 (amino acids 25-167) with a C-terminal human Ig epitope tag [hPD-1 (25-167)-3S-IG] and human PD-L1 (amino acids 18-239) with a C-terminal His epitope tag [hPD-L1(19-239)-tobacco vein mottling virus protease cleavage site (TVMV)-His] were expressed in HEK293T cells and purified sequentially by recombinant Protein A affinity chromatography and size exclusion chromatography. Human PD-L2-His (Sino Biologicals), CD80-His (Sino Biologicals), CTLA4-Ig (RnD Systems) were all obtained through commercial sources.

PD-1/PD-L1 interaction (PD-1-Ig / PD-L1-His), sequence (Q9NZQ7 18-239): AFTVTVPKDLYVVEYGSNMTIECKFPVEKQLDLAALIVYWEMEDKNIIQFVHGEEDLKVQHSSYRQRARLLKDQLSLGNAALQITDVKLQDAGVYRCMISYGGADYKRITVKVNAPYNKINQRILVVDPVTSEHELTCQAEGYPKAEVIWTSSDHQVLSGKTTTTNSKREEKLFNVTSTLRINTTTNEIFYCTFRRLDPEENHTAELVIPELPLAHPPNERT

pIC50 | SMILES
8.68 | COc1cc(OCc2cccc(-c3cccc(OCC4CCCN(C)C4)c3Cl)c2C)c(Cl)cc1CNC1CCCNC1=O (stereo not drawn) [Compound 1035]
8.59 | Cc1c(COc2cc(OCc3cncc(C#N)c3)c(CNC3CC(C)OC3=O)cc2Cl)cccc1-c1cccc(OCC2CCCN(C)C2)c1Cl (stereo not drawn) [Compound 1006]
8.36 | Cc1c(COc2cc(OCc3cncc(C#N)c3)c(CNC3C(=O)OCC3(C)C)cc2Cl)cccc1-c1cccc(OCC2CCCN(C)C2)c1Cl (stereo not drawn) [Compound 1008]
8.77 | Cc1c(COc2cc(OCc3cncc(C#N)c3)c(CNC3(C)CCOC3=O)cc2Cl)cccc1-c1cccc(OCC2CCCN(C)C2)c1Cl (stereo not drawn) [Compound 1005]
6.41 | Cc1c(COc2cc3c(cc2Cl)CN(C2CCOC2=O)C(=O)CO3)cccc1-c1cccc(OCC2CCCN(C)C2)c1Cl (stereo not drawn) [Compound 1047]
7.71 | COc1cc(OCc2cccc(-c3cccc(OCC4CCCN(C)C4)c3Cl)c2C)c(Cl)cc1CNC1(C)CC(C)(C)OC1=O (stereo not drawn) [Compound 1039]
< 5.00 | Cc1c(COc2cc(OCc3cncc(C#N)c3)c(CNC3(C)CC(C)(C)OC3=O)cc2Cl)cccc1-c1cccc(COc2cc(OCc3cncc(C#N)c3)c(CNC3(C)CC(C)(C)OC3=O)cc2Cl)c1C (stereo not drawn) [Compound 1025]
6.84 | Cc1c(COc2cc(OCc3cncc(C#N)c3)c(CNC3CC(C)(C)OC3=O)cc2Cl)cccc1-c1cccc(COc2cc(OCc3cncc(C#N)c3)c(CNC3CC(C)(C)OC3=O)cc2Cl)c1C (stereo not drawn) [Compound 1022]
6.92 | Cc1c(COc2cc(OCc3cncc(C#N)c3)c(CNC3CC(=O)OC3(C)C)cc2Cl)cccc1-c1cccc(COc2cc(OCc3cncc(C#N)c3)c(CNC3CC(=O)OC3(C)C)cc2Cl)c1C (stereo not drawn) [Compound 1021]
6.42 | Cc1c(COc2cc(OCc3cncc(C#N)c3)c(CN(C)C3(C)CCOC3=O)cc2Cl)cccc1-c1cccc(COc2cc(OCc3cncc(C#N)c3)c(CN(C)C3(C)CCOC3=O)cc2Cl)c1C (stereo not drawn) [Compound 1051]
7.10 | Cc1c(COc2cc(O)c(CNC3CC(C)OC3=O)cc2Cl)cccc1-c1cccc(OCC2CCCN(C)C2)c1Cl (stereo not drawn) [Compound 1030]
5.60 | Cc1c(COc2cc(OCc3cncc(C#N)c3)c(CN(CC3CC3)C3(C)CCOC3=O)cc2Cl)cccc1-c1cccc(COc2cc(OCc3cncc(C#N)c3)c(CN(CC3CC3)C3(C)CCOC3=O)cc2Cl)c1C (stereo not drawn) [Compound 1052]
